Experimental data taken from patent publication US20260285850A1, “SUBSTITUTED OXAZOLIDINONES AND IMIDAZOLINONES AS HERBICIDES” (FMC CORPORATION, priority 2023, published 2026).

Assays:
Type in all cases: in vivo
[1] = system: barnyardgrass (Echinochloa crus-galli); assay: Test A preemergence soil spray, visual injury rating 0-100; conditions: 10 days, 0 = no effect, 100 = complete control
Procedure, shortened: (§1)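 Grow plants in loam soil blended with sand. Apply formulated compound (non-phytotoxic solvent, surfactant) as a directed soil spray before emergence, or to plants at the one- to two-leaf stage after emergence. Hold in greenhouse 10 days, then rate injury visually versus untreated controls on a 0-100 scale.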

[2] = system: blackgrass (Alopecurus myosuroides); assay: as above; conditions: 10 days, 0 = no effect, 100 = complete control
Procedure, shortened: as §1

corn (Zea mays) [3] = assay: as above; conditions: 10 days, 0 = no effect, 100 = complete control
Procedure, shortened: as §1

[4] = system: green foxtail (Setaria viridis); assay: as above; conditions: 10 days, 0 = no effect, 100 = complete control
Procedure, shortened: as §1

kochia (Bassia scoparia) [5] = assay: as above; conditions: 10 days, 0 = no effect, 100 = complete control
Procedure, shortened: as §1

[6] = system: oat, wild (wild oat, Avena fatua); assay: as above; conditions: 10 days, 0 = no effect, 100 = complete control
Procedure, shortened: as §1

[7] = system: palmer (palmer amaranth, palmer pigweed, Amaranthus palmeri); assay: as above; conditions: 10 days, 0 = no effect, 100 = complete control
Procedure, shortened: as §1

[8] = system: ragweed (common ragweed, Ambrosia artemisiifolia); assay: as above; conditions: 10 days, 0 = no effect, 100 = complete control
Procedure, shortened: as §1

[9] = system: ryegrass, Italian (italian ryegrass, Lolium multiflorum); assay: as above; conditions: 10 days, 0 = no effect, 100 = complete control
Procedure, shortened: as §1

soybean (Glycine max) [10] = assay: as above; conditions: 10 days, 0 = no effect, 100 = complete control
Procedure, shortened: as §1

[11] = system: wheat (Triticum aestivum); assay: as above; conditions: 10 days, 0 = no effect, 100 = complete control
Procedure, shortened: as §1

[12] = system: barnyardgrass (Echinochloa crus-galli); assay: Test A postemergence application, visual injury rating 0-100; conditions: 10 days
Procedure, shortened: as §1

[13] = system: blackgrass (Alopecurus myosuroides); assay: as above; conditions: 10 days
Procedure, shortened: as §1

corn (Zea mays) [14] = assay: as above; conditions: 10 days
Procedure, shortened: as §1

[15] = system: galium (catchweed bedstraw, Galium aparine); assay: as above; conditions: 10 days
Procedure, shortened: as §1

[16] = system: green foxtail (Setaria viridis); assay: as above; conditions: 10 days
Procedure, shortened: as §1

[17] = system: horseweed (Erigeron canadensis); assay: as above; conditions: Postemergence, 125 g ai/ha, 10 days; 0 is no effect, 100 is complete control
Procedure, shortened: as §1

kochia (Bassia scoparia) [18] = assay: as above; conditions: 10 days
Procedure, shortened: as §1

[19] = system: oat, wild (wild oat, Avena fatua); assay: as above; conditions: 10 days
Procedure, shortened: as §1

[20] = system: palmer (palmer amaranth, palmer pigweed, Amaranthus palmeri); assay: as above; conditions: 10 days
Procedure, shortened: as §1

[21] = system: ragweed (common ragweed, Ambrosia artemisiifolia); assay: as above; conditions: 10 days
Procedure, shortened: as §1

[22] = system: ryegrass, Italian (italian ryegrass, Lolium multiflorum); assay: as above; conditions: 10 days
Procedure, shortened: as §1

soybean (Glycine max) [23] = assay: as above; conditions: 10 days
Procedure, shortened: as §1

[24] = system: wheat (Triticum aestivum); assay: as above; conditions: 10 days
Procedure, shortened: as §1

[25] = system: barnyardgrass (Echinochloa crusgalli); assay: Test B flooded paddy test, visual plant response rating 0-100; conditions: 250 g ai/ha, Flood, applied to paddy water, evaluated after 13 days
Procedure, shortened: (§2)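 Visual evaluation after 13 days. Water-applied treatment, 3 cm flood depth held constant, plants at 2-leaf stage at treatment.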

[26] = system: ducksalad (Heteranthera limosa); assay: as above; conditions: 250 g ai/ha, Flood, applied to paddy water, evaluated after 13 days
Procedure, shortened: as §2

rice (Oryza sativa) = assay: as above; conditions: 250 g ai/ha, Flood, applied to paddy water, evaluated after 13 days
Procedure, shortened: as §2

[27] = system: sedge, umbrella (small-flower umbrella sedge, Cyperus difformis); assay: as above; conditions: 250 g ai/ha, Flood, applied to paddy water, evaluated after 13 days
Procedure, shortened: as §2

[28] = 31 g ai/ha, postemergence, 0 = no effect, 100 = complete control
[29] = Postemergence, 125 g ai/ha, 0 is no effect, 100 is complete control

Compound: CC(C)OC(=O)C1CCC(NC(=O)C2(C)CN(c3cc(F)cc(Cl)c3)C(=O)O2)C1 (stereo not drawn) [Compound 2]
- Barnyardgrass plant response rating (0-100) ([1]; 31 g ai/ha): 10
- Barnyardgrass plant response rating (0 to 100 scale) ([1]; 125 g ai/ha): 90
- Blackgrass plant response rating (0-100) ([2]; 31 g ai/ha): 0
- Blackgrass plant response rating (0 to 100 scale) ([2]; 125 g ai/ha): 50
- Corn plant response rating (0-100) (corn (Zea mays) [3]; 31 g ai/ha): 20
- Corn plant response rating (0 to 100 scale) (corn (Zea mays) [3]; 125 g ai/ha): 70
- Foxtail, Green plant response rating (0-100) ([4]; 31 g ai/ha): 0
- Foxtail, Green plant response rating (0 to 100 scale) ([4]; 125 g ai/ha): 90
- Kochia plant response rating (0-100) (kochia (Bassia scoparia) [5]; 31 g ai/ha): 0
- Kochia plant response rating (0 to 100 scale) (kochia (Bassia scoparia) [5]; 125 g ai/ha): 70
- Oat, Wild plant response rating (0-100) ([6]; 31 g ai/ha): 0
- Oat, Wild plant response rating (0 to 100 scale) ([6]; 125 g ai/ha): 70
- Amaranth, Palmer plant response rating (0-100) ([7]; 31 g ai/ha): 20
- Amaranth, Palmer plant response rating (0 to 100 scale) ([7]; 125 g ai/ha): 80
- Ragweed plant response rating (0-100) ([8]; 31 g ai/ha): 30
- Ragweed plant response rating (0 to 100 scale) ([8]; 125 g ai/ha): 0
- Ryegrass, Italian plant response rating (0-100) ([9]; 31 g ai/ha): 20
- Ryegrass, Italian plant response rating (0 to 100 scale) ([9]; 125 g ai/ha): 80
- Soybean plant response rating (0-100) (soybean (Glycine max) [10]; 31 g ai/ha): 0
- Soybean plant response rating (0 to 100 scale) (soybean (Glycine max) [10]; 125 g ai/ha): 20
- Wheat plant response rating (0-100) ([11]; 31 g ai/ha): 50
- Wheat plant response rating (0 to 100 scale) ([11]; 125 g ai/ha): 90
- Barnyardgrass plant response rating (0-100) [12, 28]: 50
- Barnyardgrass plant response rating (0 to 100 scale) [12, 29]: 100
- Blackgrass plant response rating (0-100) [13, 28]: 60
- Blackgrass plant response rating (0 to 100 scale) [13, 29]: 70
- Corn plant response rating (0-100) (corn (Zea mays) [14]; [28]): 40
- Corn plant response rating (0 to 100 scale) (corn (Zea mays) [14]; [29]): 100
- Galium plant response rating (0-100) [15, 28]: 60
- Galium plant response rating (0 to 100 scale) [15, 29]: 90
- Foxtail, Green plant response rating (0-100) [16, 28]: 0
- Foxtail, Green plant response rating (0 to 100 scale) [16, 29]: 90
- Horseweed plant response rating (0 to 100 scale) [17]: 0
- Kochia plant response rating (0-100) (kochia (Bassia scoparia) [18]; [28]): 0
- Kochia plant response rating (0 to 100 scale) (kochia (Bassia scoparia) [18]; [29]): 80
- Oat, Wild plant response rating (0-100) [19, 28]: 70
- Oat, Wild plant response rating (0 to 100 scale) [19, 29]: 90
- Amaranth, Palmer plant response rating (0-100) [20, 28]: 0
- Amaranth, Palmer / Pigweed, Palmer plant response rating (0 to 100 scale) [20, 29]: 50
- Ragweed plant response rating (0-100) [21, 28]: 20
- Ragweed plant response rating (0 to 100 scale) [21, 29]: 50
- Ryegrass, Italian plant response rating (0-100) [22, 28]: 50
- Ryegrass, Italian plant response rating (0 to 100 scale) [22, 29]: 90
- Soybean plant response rating (0-100) (soybean (Glycine max) [23]; [28]): 20
- Soybean plant response rating (0 to 100 scale) (soybean (Glycine max) [23]; [29]): 70
- Wheat plant response rating (0-100) [24, 28]: 80
- Wheat plant response rating (0 to 100 scale) [24, 29]: 90
- Plant response rating, Barnyardgrass (0 to 100 scale, 0 is no effect and 100 is complete control) [25]: 95
- Plant response rating, Ducksalad (0 to 100 scale, 0 is no effect and 100 is complete control) [26]: 65
- Plant response rating, Rice (0 to 100 scale, 0 is no effect and 100 is complete control) (rice (Oryza sativa)): 20
- Plant response rating, Sedge, Umbrella (0 to 100 scale, 0 is no effect and 100 is complete control) [27]: 75
